Laboratory results published in US6495160B2, “Biphasic multicomponent pharmaceutical dosage forms containing substances able to modify the partitioning of drugs” (Eurand International S.p.A., priority 1997, dated 2002).

Assay: Apparent partition coefficient (Pm) between oil and water phases
Format: physicochemical
Conditions: oily phase Labrafac Hydro, benzyl alcohol 1:1, 24 hours
Method: The water volume contained a starting concentration of active principle (C0) which was lower than the solubility of the active principle in each of the two phases. At the end of the experiment, the concentrations of active principle in the water phase (CA) were measured by cromatography (HPLC).

- Partition coefficient (Pm) of the Active Principle (NMP 0% in aqueous phase): 1.75
- Partition coefficient (Pm) of the Active Principle (NMP 5% in aqueous phase): 36.7
- Partition coefficient (Pm) of the Active Principle (NMP 10% in aqueous phase): 63.5
- Partition coefficient (Pm) of the Active Principle (NMP 15% in aqueous phase): 98.3
- Partition coefficient (Pm) of the Active Principle (NMP 20% in aqueous phase): 29.6
SMILES: CS(=O)(=O)Nc1ccc([N+](=O)[O-])cc1Oc1ccccc1 [NIME, Nimesulide]
